According to EP0454060B1, “3-(Mercaptoalkyl)-quinazoline-2,4(1H,3H)-diones, processes for their preparation, and pharmaceutical compositions” (priority 1990, dated 1991):

Columns and labels:
Herpes simplex Typ 1 = test: One-step replication cycle on chick embryo cells; type: cell-based; details: Beispielreihe 2, HEZ
Adeno-Virus Typ 4 = test: Antiviral test in vitro; type: cell-based
Vaccinia Lister = test: Plaque reduction test on primary HEZ; details: mean of two experiments
Influenza A/WSN [1] = test: Plaque reduction test on primary HEZ; details: mean of two experiments
[2] = test system: Kontaktüberempfindlichkeit vom verzögerten Typ (Effektor-T-Lymphozyten-Aktivität); test: Percutaneous test for contact hypersensitivity after DNFB immunisation; type: in vivo, Meerschweinchen (Albino-Koloniezucht); details: Sensibilisierungsgrad versus control group; 2 mg/kg daily peroral, day +1 to +6; screening values; from 120 stimulatory, below 80 suppressive
From the text: Der Nachweis einer immunregulatorischen Wirksamkeit wurde am Meerschweinchen (Albino-Koloniezucht) und u. a. mit Hilfe folgender Techniken geführt: • Perkutaner Test zum Nachweis einer Kontaktüberempfindlichkeit vom verzögerten Typ (Effektor-T-Lymphozyten-Aktivität), • Takatsy-Test zum Nachweis DNP-spezifischer Serumantikörper (humorale Immunantwort).
Der Nachweis der antiviralen Wirksamkeit erfolgte in vitro an Hühnerembryonalzellen mit Vertretern verschiedener Virusgruppen. 1. Untersuchungen zur immunregulatorischen Wirksamkeit 1.1 Perkutaner Test zum Nachweis einer Kontaktüberempfindlichkeit Die epikutane Applikation von Dinitrofluorbenzol (DNFB) führt beim Meerschweinchen und bei der Maus zur Entwicklung einer verzögerten Überempfindlichkeit, eines Immunstatus, der an die klonale Vermehrung TNP-spezifischer T-Lymphozyten (TDTH-Ly) gebunden ist. Erfolgt nach einer Latenzperiode von mindestens 5 Tagen eine erneute DNFB-Applikation, kommt es zu einer Freisetzung von Lymphokinen durch Reaktion mit den TDTH-Ly dieses Hautbereiches und dadurch zu einer lokal begrenzten Entzündungsreaktion. Sieben Tage nach der Immunisierung mit 1 %igem DNFB wurden die Flanken der Versuchstiere enthaart und durch Aufbringen je eines Tropfens 0,5 %, 0,1 %, 0,05 %, 0,025 % und 0,01 %iger DNFB-Lösung getestet. Die noch positive Konzentration ist dem Grad der Sensibilisierung umgekehrt proportional. Die Testergebnisse ergeben sich aus Stärke und Anzahl der positiven Hautreaktionen, der Stimulierungsindex (SI) aus dem Vergleich der Test- und Kontrolltiere. Die Substanzbehandlung erfolgte peroral. Mittels Schlundsonde wurde eine tägliche Dosis von 2 mg/kg Körpermasse als Suspension in Wasser gegeben. Behandlungsdauer: 1 Tag + 1 (ein Tag nach der Immunisierung) bis +6. Die Kontrolltiere erhielten nur die eingesetzte Lactose. 1.2 Takatsy-Test Nach Immunisierung mit Dinitrofluorbenzol (DNFB) kommt es beim Meerschweinchen auch zur Bildung DNP-spezifischer humoraler Antikörper, die bevorzugt der IgG1-Substanzklasse angehören. 14 Tage nach primärer epikutaner Applikation von DNFB wurde den Versuchstieren Blut durch Herzpunktion entnommen. Die Bestimmung der Antikörperkonzentration erfolgte nach einer von Takatsy beschriebenen Methode (Takatsy, G.: A new method for the preparation of serial dilutions in a quick and accurate way. Kiserletes Orvostudomany 2 (1950) 263 - 396). Als Indikatorzellen wurden TNP-beladene Schaferythrozyten verwendet (Kopplung nach Rittenberg und Pratt; Rittenberg, M. B. and Pratt, K. L.: Antitrinitrophenyl (TNP) plaque assay. Primary response of BALB/c mice to soluble and particulate immunogen. Proc. Soc. exp. Biol. Med., 132 (1969) 575 - 579). 1.3 Ergebnisse Sensibilisierungsgrad (%) und Serumantikörperkonzentration (AK-Titer-Differenz) gegenüber der jeweiligen Kontrollgruppe (Screening-Werte)
Aus den Werten wird deutlich, daß die Verbindungen der allgemeinen Formel I einen gut nachweisbaren Effekt auf die Effektor-T-Lymphozyten-abhängige verzögerte Uberempfindlichkeit haben. Kontaktdermatitis-Werte ab 120 (≙ 20 % Steigerung gegenüber der Kontrolle) bzw. unter 80 werden als Nachweis eines stimulatorischen bzw. suppressorischen Effektes angesehen. Antikörpertiter-Differenzen von >+1 bzw. <-1 verdeutlichen den stimulatorischen bzw. suppressorischen Effekt der Substanzen auf die humorale Immunantwort. 2. Untersuchungen zur immunstimulierenden Wirkung • 2.1 Plaque-Test zum Nachweis von SE-spezifischen IgM- und IgG-PBZ Zur Prüfung immunstimulierender Effekte wurde u. a. auch der Einfluß von Verbindungen der allgemeinen Formel I auf die humorale Immunantwort an Mäusen des Inzuchtstammes CBA und mittels Hämolyse-Plaque-Test (HPT) untersucht. Diese Technik erlaubt die quantitative und getrennte Erfassung IgM- und IgG-Antikörper produzierender Zellen (= Plaque bildende Zellen; PBZ). […]

Influenza A/WSN [3] = test: One-step replication cycle on permanent human kidney cell line
[4] = 250 µmol/l, mean of three experiments

## O=c1[nH]c2ccccc2c(=O)n1CCS [Beispiel 1, 3-(2-Mercaptoethyl)-chinazolin-2,4(1H,3H)-dion]
Herpes simplex Typ 1; 125 µmol/l, mean of three experiments
  Senkung des Virusertrages im Vergleich zur unbehandelten Kontrolle: 0,33 log10 TCID50/0,2 ml
Herpes simplex Typ 1; 125 µmol/l, n.s. = nicht signifikant
  % Hemmung: n. s.
Herpes simplex Typ 1; [4]
  % Hemmung: 99%
  Senkung des Virusertrages im Vergleich zur unbehandelten Kontrolle: 1,0 log10 TCID50/0,2 ml
Adeno-Virus Typ 4
  antivirale Wirkung: nicht antiviral wirksam
Vaccinia Lister; 125 µmol/l
  Plaquereduktion in % zur Viruskontrolle auf primären HEZ: 96%
Vaccinia Lister; 250 µmol/l
  Plaquereduktion in % zur Viruskontrolle auf primären HEZ: 100%
Vaccinia Lister; 31,25 µmol/l, 31.25 µM
  Plaquereduktion in % zur Viruskontrolle auf primären HEZ: 87%
Vaccinia Lister; 62,5 µmol/l, 62.5 µM
  Plaquereduktion in % zur Viruskontrolle auf primären HEZ: 92%
Influenza A/WSN [1]; 125 µmol/l
  Plaquereduktion in % zur Viruskontrolle auf primären HEZ: 98%
Influenza A/WSN [1]; 250 µmol/l
  Plaquereduktion in % zur Viruskontrolle auf primären HEZ: 100%
Influenza A/WSN [1]; 31,25 µmol/l, 31.25 µM
  Plaquereduktion in % zur Viruskontrolle auf primären HEZ: 85%
Influenza A/WSN [1]; 62,5 µmol/l, 62.5 µM
  Plaquereduktion in % zur Viruskontrolle auf primären HEZ: 92%

## COc1cc2[nH]c(=O)n(CCCS)c(=O)c2cc1OC [Beispiel 2, 3-(3-Mercaptoprop-1-yl)-6,7-dimethoxychinazolin-2,4(1H,3H)-dion]
[2]
  Kontaktdermatitis (Kontrolle: 100) 24-Stunden-Reaktion: 180%
Influenza A/WSN [3]; Beispielreihe 5a, 125 µmol/l
  % Hemmung: 99,0%
  Senkung des Virusertrages im Vergleich zur unbehandelten Kontrolle: 2,0 log10 TCID50/0,2 ml
Influenza A/WSN [3]; Beispielreihe 5a, 250 µmol/l
  % Hemmung: 99,99%
  Senkung des Virusertrages im Vergleich zur unbehandelten Kontrolle: 6,17 log10 TCID50/0,2 ml
Influenza A/WSN [3]; Beispielreihe 5a, 31,25 µmol/l
  Senkung des Virusertrages im Vergleich zur unbehandelten Kontrolle: 0 log10 TCID50/0,2 ml
Influenza A/WSN [3]; Beispielreihe 5a, 62,5 µmol/l
  Senkung des Virusertrages im Vergleich zur unbehandelten Kontrolle: 0,5 log10 TCID50/0,2 ml
Influenza A/WSN [3]; Beispielreihe 5a, 62,5 µmol/l, n. s. = nicht signifikant
  % Hemmung: n. s.
